Data from patent US20060116390A1, “Hepatitis c virus inhibitors” (priority 2003, published 2006).
Read-outs that look alike come from different tables or passages of the source.

Tested on: HCV proteins in Rep5.1 cells (replicon cell line)
Assay: Inhibitory activity of HCV: cell-based ELISA in replicon cell line Rep5.1 (decrease of HCV proteins)
Parameters: species or system hepatitis C virus
Conditions: Rep5.1 cells, 72 hours with drug
Procedure, shortened: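 Rep5.1 replicon cells (5000/well, DMEM-10 with 500 μg/ml G418) were given serially diluted drug 4 h after seeding. After 72 h, cells were fixed in methanol/acetone and HCV proteins detected by cell-based ELISA using replicon-specific patient plasma antibodies. IC50 is the concentration giving 50% protein decrease versus the no-drug control.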

[1] = Hepatitis C virus, 72 h, concentration at which 50% of HCV proteins was decreased, Table 2, read-out: IC50
[2] = Hepatitis C virus, 72 h, decrease of HCV proteins measured by HCV antibody, Table 1, read-out: Level (IC50 values classified)

**Q.** Which results are given for `CC1=C(C(=O)OCc2scc(C)c2Cl)C(CF)NC(=S)N1` (centres unmarked) [15′, 4-fluoromethyl-6-methyl-2-thioxo-1,2,3,4-tetrahydro-pyrimidine-5-carboxylic acid 3-chloro-4-methyl-thiophen-2-ylmethyl ester]?
**A.** IC50 [1]: 1000 nM; IC50 [2]: < 1000 nM

**Q.** How did the IC50 [1] turn out when `CC1=C(C(=O)OCc2ccc(-c3ccccc3)cc2)C(CO)NC(=S)N1` (centres unmarked) [28″, 4-hydroxymethyl-6-methyl-2-thioxo-1,2,3,4-tetrahydro-pyrimidine-5-carboxylic acid biphenyl-4-ylmethyl ester] was run?
**A.** 1000 nM

**Q.** And the IC50 [2]?
**A.** < 1000 nM

**Q.** `CC1=C(C(=O)OCCc2ccsc2Br)CNC(=S)N1` [Compound 247, 6-methyl-2-thioxo-1,2,3,4-tetrahydro-pyrimidine-5-carboxylic acid 2-(2-bromo-thiophen-3-yl)-ethyl ester] was tested. Which IC50 [1] did it give?
**A.** < 400 nM

**Q.** And the IC50 [2]?
**A.** < 1000 nM

**Q.** How did the IC50 [1] turn out when `CC1=C(C(=O)OCc2ccccc2C(F)(F)F)C(CF)NC(=S)N1` (centres unmarked) [37′, 4-fluoromethyl-6-methyl-2-thioxo-1,2,3,4-tetrahydro-pyrimidine-5-carboxylic acid 2-trifluoromethyl-benzyl ester] was run?
**A.** 600 nM

**Q.** And the IC50 [2]?
**A.** < 1000 nM

**Q.** What does the source list for `CC1=C(C(=O)OCCc2cc3c(C)nn(C)c3s2)CNC(=S)N1` [Compound 267, 6-methyl-2-thioxo-1,2,3,4-tetrahydro-pyrimidine-5-carboxylic acid 2-(1,3-dimethyl-1H-thieno[2,3-c]pyrazol-5-yl)-ethyl ester]?
**A.** IC50 [1]: 24000 nM; IC50 [2]: > 20000 nM

**Q.** How did the IC50 [1] turn out when `CC1=C(C(=O)OCCc2ccc(Cl)c(Cl)c2)C(CO)NC(=S)N1` (centres unmarked) [42″, 4-hydroxymethyl-6-methyl-2-thioxo-1,2,3,4-tetrahydro-pyrimidine-5-carboxylic acid 2-(3,4-dichloro-phenyl)-ethyl ester] was run?
**A.** < 400 nM

**Q.** What about the IC50 [2] of the same compound?
**A.** < 1000 nM

**Q.** With `COCC#CCOC(=O)C1=C(C)NC(=S)NC1` [Compound 215, 6-methyl-2-thioxo-1,2,3,4-tetrahydro-pyrimidine-5-carboxylic acid 4-methoxy-but-2-inyl ester] as the compound, how does the IC50 (concentration at which 50% of HCV proteins was decreased, Table 2, read-out: IC50) read?
**A.** 11000 nM

**Q.** How did the IC50 [1] turn out when `CC1=C(C(=O)OCCc2ccc(N3CCCC3)c([N+](=O)[O-])c2)C(CO)NC(=S)N1` (centres unmarked) [99″, 4-Hydroxymethyl-6-methyl-2-thioxo-1,2,3,4-tetrahydro-pyrimidine-5-carboxylic acid 2-(3-nitro-4-pyrrolidin-1-yl-phenyl)-ethyl ester] was run?
**A.** 1000 nM

**Q.** What about the IC50 [2] of the same compound?
**A.** < 1000 nM

**Q.** How did the IC50 [1] turn out when `CC1=C(C(=O)OCC2CCCO2)CNC(=S)N1` (centres unmarked) [Compound 161, 6-methyl-2-thioxo-1,2,3,4-tetrahydro-pyrimidine-5-carboxylic acid tetrahydrofuran-2-ylmethyl ester] was run?
**A.** > 100000 nM

**Q.** What about the IC50 [2] of the same compound?
**A.** > 20000 nM

**Q.** What does the source list for `CC1=C(C(=O)OCc2cc(Cl)cc(Cl)c2)C(CF)NC(=S)N1` (centres unmarked) [89′, 4-fluoromethyl-6-methyl-2-thioxo-1,2,3,4-tetrahydro-pyrimidine-5-carboxylic acid 3,5-dichloro-benzyl ester]?
**A.** IC50 [1]: 400 nM; IC50 [2]: < 1000 nM

**Q.** With `CC1=C(C(=O)OCc2ccncc2)CNC(=S)N1` [Compound 155, 6-methyl-2-thioxo-1,2,3,4-tetrahydro-pyrimidine-5-carboxylic acid pyridin-4-ylmethyl ester] as the compound, how does the IC50 [1] read?
**A.** > 100000 nM

**Q.** And the IC50 [2]?
**A.** > 20000 nM

**Q.** `CC1=C(C(=O)SCCc2ccccc2)C(CO)NC(=S)N1` (centres unmarked) [62″, 4-hydroxymethyl-6-methyl-2-thioxo-1,2,3,4-tetrahydro-pyrimidine-5-carbothioic acid S-phenethyl ester] was tested. Which IC50 [1] did it give?
**A.** > 100000 nM

**Q.** What about the IC50 [2] of the same compound?
**A.** > 20000 nM
